In patent US6362370B1, “Wood preservatives” (Lonza AG, priority 1996, dated 2002):

What was measured:
[1] = Penetration depth in sapwood blocks after immersion in aqueous QAC solution; assay type: physicochemical; settings: sapwood blocks 2.5 cm×5.0 cm×12 cm, immersion in 5% strength aqueous solution, 24 hours at 20° C.
Protocol: Fine sapwood blocks of dimensions 2.5 cm×5.0 cm×12 cm were impregnated with the QAC shown in the table by immersion in an aqueous solution of in each case 5% strength. The immersion time was a standard 24 hours (at 20° C.).

[2] = system: fungus-infested soil (forest soil); assay: Soil burying method according to Schwammkeller: service life of impregnated beechwood bars; settings: beechwood bars 1 cm×1 cm×40 cm, immersion in 0.5% strength solution for 24 hours, buried in fungus-infested soil, time until flexural breaking strength has fallen to 25% of the initial value
Protocol: Bars of beechwood (1 cm×1 cm×40 cm) were impregnated by immersion in a 0.5% strength solution of the SAC for 24 hours and then tested by the soil burying method according to Schwammkeller. For this, treated and untreated timbers were buried in fungus-infested soil (forest soil). The service life here is defined as the time after which the flexural breaking strength has fallen to 25% of the initial value of (untreated) comparison timbers of the same dimensions and type of wood.

Substance	Penetration depth [1]	Service life ([2]; listed as V5)	Service life [2]	Service life ([2]; listed as 10)
N,N-didecyl-N-methyl-N-(polyoxyethyl)ammonium [Example 9]	6-8 mm			
N,N-dimethyl-N-benzyl-N-(coconut alkyl)ammonium [Example V1, reference compound]	1-3 mm	3 months		
N,N-didecyl-N-methyl-N-(polyoxyethyl)ammonium lactate [Example 7]	7-8 mm		>9 months	
N,N-dimethyl-N-benzyl-N-(coconut alkyl)ammonium [Example 6]	7-8 mm			
N,N-didecyl-N-methyl-N-(polyoxyethyl)ammonium [Example V4, reference compound]	3-4 mm			
N,N-didecyl-N-methyl-N-(polyoxyethyl)ammonium [Example V3, reference compound]	2-3 mm		4 months	
N,N-dimethyl-N-benzyl-N-(coconut alkyl)ammonium [Example V2, reference compound]	2-3 mm			
N,N-didecyl-N-methyl-N-(polyoxyethyl)ammonium hydroxyacetate [Example 8]	7-10 mm			
N,N-dimethyl-N-benzyl-N-(coconut alkyl)ammonium [Example 5]	6-8 mm			>9 months
